“Also recorded” adds a separate entry of the source.
Columns and labels:
Caco-2 cell monolayer = Caco-2 cell monolayer transport (absorption, AP → BL), HPLC-DAD; details: for absorption by human intestinal epithelial cells, judged from P app against atenolol and propranolol: Caco-2 monolayer, AP → BL; for recovery rate (in words): Caco-2 assay
Protocol: (§1) The cells were left to grow for 21 days to reach confluence and differentiation, so that Caco-2 cells were fully differentiated in this assay and used for further experiments.
(§2) Flux describes the movement of a substance across polarized Caco-2 monolayers either in absorptive (apical → basolateral, AP → BL) or secretary direction (basolateral → apical, BL → AP). Absorption assay was carried out in this research.
(§3) To determine the concentration of corresponding constituents in both AP and BL sides, the lyophilized samples of AP and BL sides were dissolved in quantitative methanol by ultrasound for 20 min and then filtered by 0.45 μm filtration membranes.

[1] = as above; details: human
Protocol: as §1, §2, §3

[2] = Caco-2, Recovery rate, total compound in donor and receiver at end / initial compound, Caco-2, 90 min, Mean ± SD, n ≥ 3

Compound | absorption by human intestinal epithelial cells, judged from P app against atenolol and propranolol (Caco-2 cell monolayer) | Papp at 1.5 h ([1]; Caco-2) | recovery at 1.5 h ([1]; Caco-2) | recovery rate (in words) (Caco-2 cell monolayer) | recovery at 1.5 h [1, 2]
O=C1c2cccc(O)c2C(=O)c2c(O)cc(CO)cc21 [AE, aloe-emodin] | partly absorbed | 0.0195 ×10⁻⁶ cm/s | 42.4 ± 6.32% |  | 
Cc1cc(O)c2c(c1)C(=O)c1cc(O)cc(O)c1C2=O [EN, emodin] |  | 0.00248 ×10⁻⁶ cm/s | 14.5 ± 2.5% | poor recovery rates; also recorded: low recovery rates | 
OC[C@H]1O[C@@H](Oc2cc(O)cc(/C=C/c3ccc(O)cc3)c2)[C@H](O)[C@@H](O)[C@@H]1O [PL, polydatin] | hardly absorbed | 0.00492 ×10⁻⁶ cm/s |  |  | 59.9 ± 9.9%
CC(C)NCC(O)COc1cccc2ccccc12 (stereo not drawn) [PR, Propranolol, reference compound] |  | 0.0607 ×10⁻⁶ cm/s |  |  | ~100%
Oc1ccc(/C=C/c2cc(O)cc(O)c2)cc1 [RL, resveratrol] | partly absorbed | 0.0178 ×10⁻⁶ cm/s |  |  | 62.4 ± 6.21%
O=C(O)c1cc(O)c2c(c1)C(=O)c1cccc(O)c1C2=O [RN, rhein] | partly absorbed | 0.0171 ×10⁻⁶ cm/s |  |  | ~100%
OC[C@H]1O[C@@H](Oc2c(O)cc(O)cc2/C=C/c2ccc(O)cc2)[C@H](O)[C@@H](O)[C@@H]1O [TSG, 2,3,5,4′-tetrahydroxystilbene-2-O-β-D-glucoside] | hardly absorbed; also recorded: poorly absorbed | 0.00237 ×10⁻⁶ cm/s |  | poor recovery rates; also recorded: low recovery rates | 17.4 ± 1.6%

Source: article PMC3944923, “Intestinal Transportations of Main Chemical Compositions of Polygoni Multiflori Radix in Caco-2 Cell Model” (Evidence-based Complementary and Alternative Medicine : eCAM, 2014)
